Laboratory results: the kinase profiling compilation of Christmann-Franck et al. (2016)

Tests used:
Assay in all cases: radiometric filter-binding kinase assay
PRKCZ (human) = PRKCZ (human) (UniProt Q05513)
DAPK1 (human) = DAPK1 (human) (UniProt P53355)
MELK (human) = MELK (human) (UniProt Q14680)
NTRK1 (human) = NTRK1 (human) (UniProt P04629)
PHKG1 (human) = PHKG1 (human) (UniProt Q16816)
RPS6KA1 KD1 KD2 (human) = RPS6KA1 KD1 KD2 (human) (UniProt Q15418)
MKNK2 (human) = MKNK2 (human) (UniProt Q9HBH9)
ERBB4 (human) = ERBB4 (human) (UniProt Q15303)
CSK (human) = CSK (human) (UniProt P41240)
CDK2 CCNA2 (human) = CDK2 CCNA2 (human) (UniProt P20248+P24941)
ROCK2 (rat) = conditions: accession and sequence are those of the human protein
TTK (human) = TTK (human) (UniProt P33981)
EPHB3 (human) = EPHB3 (human) (UniProt P54753)
Sequence of EPHB3 (human) (P54753 whole entry, looked up): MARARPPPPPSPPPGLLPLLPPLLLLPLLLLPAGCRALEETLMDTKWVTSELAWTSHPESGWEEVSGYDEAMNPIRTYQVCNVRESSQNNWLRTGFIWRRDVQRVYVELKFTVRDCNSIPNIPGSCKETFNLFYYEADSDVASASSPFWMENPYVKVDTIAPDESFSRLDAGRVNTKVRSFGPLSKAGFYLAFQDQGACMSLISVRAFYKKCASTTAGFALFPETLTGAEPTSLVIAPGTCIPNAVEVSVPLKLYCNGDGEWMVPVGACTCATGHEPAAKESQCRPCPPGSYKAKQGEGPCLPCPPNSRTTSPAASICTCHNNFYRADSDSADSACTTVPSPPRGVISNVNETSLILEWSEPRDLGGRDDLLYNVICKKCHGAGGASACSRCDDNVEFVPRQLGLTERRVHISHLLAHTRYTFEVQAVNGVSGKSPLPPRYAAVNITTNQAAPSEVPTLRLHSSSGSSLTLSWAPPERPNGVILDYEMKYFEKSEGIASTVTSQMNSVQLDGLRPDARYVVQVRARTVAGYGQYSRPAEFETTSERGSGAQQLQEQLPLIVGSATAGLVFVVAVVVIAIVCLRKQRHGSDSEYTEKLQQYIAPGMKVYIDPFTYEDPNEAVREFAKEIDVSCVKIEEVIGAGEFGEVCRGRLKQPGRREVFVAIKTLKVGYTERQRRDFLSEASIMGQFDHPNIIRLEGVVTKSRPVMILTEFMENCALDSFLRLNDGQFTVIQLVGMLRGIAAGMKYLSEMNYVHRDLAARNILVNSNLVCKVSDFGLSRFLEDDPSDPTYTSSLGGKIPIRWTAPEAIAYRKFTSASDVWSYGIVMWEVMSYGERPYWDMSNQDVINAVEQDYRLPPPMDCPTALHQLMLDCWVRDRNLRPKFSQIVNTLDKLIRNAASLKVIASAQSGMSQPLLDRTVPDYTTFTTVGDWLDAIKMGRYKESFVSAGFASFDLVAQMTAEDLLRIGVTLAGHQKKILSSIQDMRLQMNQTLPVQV

AURKB (human) = AURKB (human) (UniProt Q96GD4)
Sequence of AURKB (human) (Q96GD4 whole entry, looked up): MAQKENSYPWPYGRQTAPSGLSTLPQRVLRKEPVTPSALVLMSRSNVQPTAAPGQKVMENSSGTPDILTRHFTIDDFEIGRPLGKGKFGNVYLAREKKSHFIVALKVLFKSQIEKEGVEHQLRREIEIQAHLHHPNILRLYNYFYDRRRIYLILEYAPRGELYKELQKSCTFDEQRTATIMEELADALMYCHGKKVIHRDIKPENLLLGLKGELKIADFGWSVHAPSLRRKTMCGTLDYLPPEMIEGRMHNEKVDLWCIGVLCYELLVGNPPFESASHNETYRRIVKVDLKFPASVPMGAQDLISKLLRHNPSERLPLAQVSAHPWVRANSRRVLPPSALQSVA

MAP3K9 (human) = MAP3K9 (human) (UniProt P80192)
LCK (mouse) = conditions: accession and sequence are those of the human protein
MAPK13 (human) = MAPK13 (human) (UniProt O15264)
SRC (human) = SRC (human) (UniProt P12931)
Sequence of SRC (human) (P12931 whole entry, looked up): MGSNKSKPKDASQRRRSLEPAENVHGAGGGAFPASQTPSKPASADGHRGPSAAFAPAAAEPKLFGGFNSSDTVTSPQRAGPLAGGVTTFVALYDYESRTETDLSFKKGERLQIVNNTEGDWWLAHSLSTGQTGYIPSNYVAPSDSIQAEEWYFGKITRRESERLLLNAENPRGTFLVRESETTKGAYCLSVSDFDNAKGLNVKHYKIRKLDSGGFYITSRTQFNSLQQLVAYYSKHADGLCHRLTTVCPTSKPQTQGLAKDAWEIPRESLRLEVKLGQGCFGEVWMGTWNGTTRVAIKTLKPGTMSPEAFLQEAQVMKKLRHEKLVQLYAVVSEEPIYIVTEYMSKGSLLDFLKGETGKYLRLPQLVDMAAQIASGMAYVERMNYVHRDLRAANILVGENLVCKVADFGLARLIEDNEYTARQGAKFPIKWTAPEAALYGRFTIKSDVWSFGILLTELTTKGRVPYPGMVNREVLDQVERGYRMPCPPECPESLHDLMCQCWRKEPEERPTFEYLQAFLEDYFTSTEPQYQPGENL

MAP2K2 (human) = MAP2K2 (human) (UniProt P36507)
MKNK1 (human) = MKNK1 (human) (UniProt Q9BUB5)
EEF2K (human) = EEF2K (human) (UniProt O00418)
GSK3B (human) = GSK3B (human) (UniProt P49841)
MINK1 (human) = MINK1 (human) (UniProt Q8N4C8)
FGFR1 (human) = FGFR1 (human) (UniProt P11362)
Sequence of FGFR1 (human) (P11362 whole entry, looked up): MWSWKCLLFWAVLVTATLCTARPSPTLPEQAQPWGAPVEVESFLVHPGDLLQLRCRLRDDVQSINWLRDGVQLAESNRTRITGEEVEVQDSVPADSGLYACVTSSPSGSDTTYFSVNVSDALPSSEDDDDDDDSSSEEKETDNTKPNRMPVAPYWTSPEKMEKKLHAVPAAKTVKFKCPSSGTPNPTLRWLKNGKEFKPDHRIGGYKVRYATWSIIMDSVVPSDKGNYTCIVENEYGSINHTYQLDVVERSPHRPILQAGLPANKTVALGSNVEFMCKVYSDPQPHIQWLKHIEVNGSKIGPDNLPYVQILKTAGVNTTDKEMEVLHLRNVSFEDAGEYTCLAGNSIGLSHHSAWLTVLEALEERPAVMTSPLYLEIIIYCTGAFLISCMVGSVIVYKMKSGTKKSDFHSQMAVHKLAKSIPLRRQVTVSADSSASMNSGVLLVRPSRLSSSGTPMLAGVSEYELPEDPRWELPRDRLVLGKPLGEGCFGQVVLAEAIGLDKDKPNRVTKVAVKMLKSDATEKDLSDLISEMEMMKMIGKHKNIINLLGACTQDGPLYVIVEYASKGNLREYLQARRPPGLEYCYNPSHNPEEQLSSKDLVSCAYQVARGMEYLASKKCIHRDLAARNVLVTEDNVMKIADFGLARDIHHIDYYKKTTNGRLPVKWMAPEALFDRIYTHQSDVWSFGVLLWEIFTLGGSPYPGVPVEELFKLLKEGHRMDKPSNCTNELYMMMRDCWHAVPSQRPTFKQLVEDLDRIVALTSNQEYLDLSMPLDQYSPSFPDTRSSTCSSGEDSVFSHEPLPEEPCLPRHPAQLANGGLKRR

MAPK1 (human) = MAPK1 (human) (UniProt P28482)
Sequence of MAPK1 (human) (P28482 whole entry, looked up): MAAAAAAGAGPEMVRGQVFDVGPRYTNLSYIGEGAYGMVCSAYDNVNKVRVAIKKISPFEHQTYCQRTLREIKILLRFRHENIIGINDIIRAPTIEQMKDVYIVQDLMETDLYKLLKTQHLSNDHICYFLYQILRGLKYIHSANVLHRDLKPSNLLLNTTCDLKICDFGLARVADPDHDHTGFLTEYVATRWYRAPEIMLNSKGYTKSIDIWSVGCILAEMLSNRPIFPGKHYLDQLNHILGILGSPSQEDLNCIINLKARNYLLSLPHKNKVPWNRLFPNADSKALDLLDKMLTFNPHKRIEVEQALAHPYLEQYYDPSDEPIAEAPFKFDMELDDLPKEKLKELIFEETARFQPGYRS

CHEK2 (human) = CHEK2 (human) (UniProt O96017)
CSNK2A1 (human) = CSNK2A1 (human) (UniProt P68400)
MYLK (human) = MYLK (human) (UniProt Q15746)
MARK4 (human) = MARK4 (human) (UniProt Q96L34)
Sequence of MARK4 (human) (Q96L34 whole entry, looked up): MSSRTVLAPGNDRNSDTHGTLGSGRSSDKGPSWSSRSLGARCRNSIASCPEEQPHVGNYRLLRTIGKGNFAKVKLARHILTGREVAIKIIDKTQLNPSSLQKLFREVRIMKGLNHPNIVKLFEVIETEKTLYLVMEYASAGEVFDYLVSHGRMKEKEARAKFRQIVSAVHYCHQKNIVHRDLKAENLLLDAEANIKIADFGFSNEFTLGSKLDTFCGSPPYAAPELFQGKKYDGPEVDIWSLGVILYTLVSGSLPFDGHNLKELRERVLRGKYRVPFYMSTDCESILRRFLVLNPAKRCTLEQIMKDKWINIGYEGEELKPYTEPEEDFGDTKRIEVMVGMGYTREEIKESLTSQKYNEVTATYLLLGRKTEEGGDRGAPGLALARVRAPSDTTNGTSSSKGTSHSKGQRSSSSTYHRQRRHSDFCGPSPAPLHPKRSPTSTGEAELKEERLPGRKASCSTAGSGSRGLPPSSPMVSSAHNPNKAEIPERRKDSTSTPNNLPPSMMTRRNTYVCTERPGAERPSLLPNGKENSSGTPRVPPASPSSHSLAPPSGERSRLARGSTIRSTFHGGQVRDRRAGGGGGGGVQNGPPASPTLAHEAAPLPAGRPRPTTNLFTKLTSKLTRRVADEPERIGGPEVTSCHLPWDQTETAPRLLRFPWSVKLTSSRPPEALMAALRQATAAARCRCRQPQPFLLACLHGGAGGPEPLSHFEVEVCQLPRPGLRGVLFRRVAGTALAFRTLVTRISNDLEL

PRKAA1 or PRKAA2 (rat) = conditions: accession and sequence are those of the human protein
PRKACA (human) = PRKACA (human) (UniProt P17612)
[1] = biological target: STK11 CAB39 STRADA (human) (UniProt Q9Y376+Q7RTN6+Q15831)
Sequence of STK11 CAB39 STRADA (human) (Q15831 whole entry, looked up): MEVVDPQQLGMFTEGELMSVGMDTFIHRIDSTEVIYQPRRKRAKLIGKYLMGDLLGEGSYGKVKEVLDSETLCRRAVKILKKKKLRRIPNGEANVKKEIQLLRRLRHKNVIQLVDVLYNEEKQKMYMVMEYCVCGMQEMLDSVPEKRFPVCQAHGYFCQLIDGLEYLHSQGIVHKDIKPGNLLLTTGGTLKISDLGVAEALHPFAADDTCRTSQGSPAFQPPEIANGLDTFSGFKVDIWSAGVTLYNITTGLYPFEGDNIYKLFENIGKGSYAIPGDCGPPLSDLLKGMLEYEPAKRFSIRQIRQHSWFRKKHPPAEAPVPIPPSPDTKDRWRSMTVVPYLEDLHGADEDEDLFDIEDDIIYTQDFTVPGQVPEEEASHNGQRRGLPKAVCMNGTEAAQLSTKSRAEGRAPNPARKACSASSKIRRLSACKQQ
Sequence of STK11 CAB39 STRADA (human) (Q7RTN6 whole entry, looked up): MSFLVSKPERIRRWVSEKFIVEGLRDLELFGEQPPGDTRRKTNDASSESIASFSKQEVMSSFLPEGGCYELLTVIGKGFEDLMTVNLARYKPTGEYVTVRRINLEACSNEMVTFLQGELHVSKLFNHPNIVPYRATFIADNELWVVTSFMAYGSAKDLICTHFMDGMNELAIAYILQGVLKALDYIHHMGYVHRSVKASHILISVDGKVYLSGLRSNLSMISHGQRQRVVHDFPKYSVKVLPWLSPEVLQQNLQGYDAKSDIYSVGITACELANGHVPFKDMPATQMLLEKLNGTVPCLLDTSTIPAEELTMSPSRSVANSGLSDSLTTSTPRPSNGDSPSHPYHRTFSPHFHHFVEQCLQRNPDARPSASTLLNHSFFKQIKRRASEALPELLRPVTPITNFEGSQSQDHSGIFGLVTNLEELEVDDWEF
Sequence of STK11 CAB39 STRADA (human) (Q9Y376 whole entry, looked up): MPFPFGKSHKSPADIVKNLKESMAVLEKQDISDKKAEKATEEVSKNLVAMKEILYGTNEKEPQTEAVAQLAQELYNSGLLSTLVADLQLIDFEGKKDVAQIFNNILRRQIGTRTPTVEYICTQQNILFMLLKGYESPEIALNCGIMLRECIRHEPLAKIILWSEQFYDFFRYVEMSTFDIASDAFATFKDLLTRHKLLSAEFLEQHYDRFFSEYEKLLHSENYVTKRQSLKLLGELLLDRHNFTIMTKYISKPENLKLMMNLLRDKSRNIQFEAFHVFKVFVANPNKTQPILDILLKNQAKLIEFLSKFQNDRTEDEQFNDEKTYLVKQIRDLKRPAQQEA

IKBKB (human) = IKBKB (human) (UniProt O14920)
MAPKAPK3 (human) = MAPKAPK3 (human) (UniProt Q16644)
INSRR (human) = INSRR (human) (UniProt P14616)

N#Cc1c(C2CCNCC2)cc(-c2c(O)cccc2OCC2CC2)nc1N
residual activity (PRKCZ (human); compound 1.0 µM): 88%
residual activity (PRKCZ (human); compound 10.0 µM): 76%
residual activity (DAPK1 (human); compound 1.0 µM): 68%
residual activity (DAPK1 (human); compound 10.0 µM): 46%
residual activity (MELK (human); compound 1.0 µM): 88%
residual activity (MELK (human); compound 10.0 µM): 29%
residual activity (NTRK1 (human); compound 1.0 µM): 68%
residual activity (NTRK1 (human); compound 10.0 µM): 20%
residual activity (PHKG1 (human); compound 1.0 µM): 77%
residual activity (PHKG1 (human); compound 10.0 µM): 59%
residual activity (RPS6KA1 KD1 KD2 (human); compound 1.0 µM): 45%
residual activity (RPS6KA1 KD1 KD2 (human); compound 10.0 µM): 6%
residual activity (MKNK2 (human); compound 1.0 µM): 113%
residual activity (MKNK2 (human); compound 10.0 µM): 89%
residual activity (ERBB4 (human); compound 1.0 µM): 71%
residual activity (ERBB4 (human); compound 10.0 µM): 67%
residual activity (CSK (human); compound 1.0 µM): 83%
residual activity (CSK (human); compound 10.0 µM): 74%
residual activity (CDK2 CCNA2 (human); compound 1.0 µM): 32%
residual activity (CDK2 CCNA2 (human); compound 10.0 µM): 6%
residual activity (ROCK2 (rat); compound 1.0 µM): 88%
residual activity (ROCK2 (rat); compound 10.0 µM): 61%
residual activity (TTK (human); compound 1.0 µM): 89%
residual activity (TTK (human); compound 10.0 µM): 66%
residual activity (EPHB3 (human); compound 1.0 µM): 94%
residual activity (EPHB3 (human); compound 10.0 µM): 74%
residual activity (AURKB (human); compound 1.0 µM): 67%
residual activity (AURKB (human); compound 10.0 µM): 42%
residual activity (MAP3K9 (human); compound 1.0 µM): 73%
residual activity (MAP3K9 (human); compound 10.0 µM): 66%
residual activity (LCK (mouse); compound 1.0 µM): 82%
residual activity (LCK (mouse); compound 10.0 µM): 33%
residual activity (MAPK13 (human); compound 1.0 µM): 85%
residual activity (MAPK13 (human); compound 10.0 µM): 68%
residual activity (SRC (human); compound 1.0 µM): 89%
residual activity (SRC (human); compound 10.0 µM): 68%
residual activity (MAP2K2 (human); compound 1.0 µM): 107%
residual activity (MAP2K2 (human); compound 10.0 µM): 77%
residual activity (MKNK1 (human); compound 1.0 µM): 101%
residual activity (MKNK1 (human); compound 10.0 µM): 90%
residual activity (EEF2K (human); compound 1.0 µM): 90%
residual activity (EEF2K (human); compound 10.0 µM): 56%
residual activity (GSK3B (human); compound 1.0 µM): 80%
residual activity (GSK3B (human); compound 10.0 µM): 73%
residual activity (MINK1 (human); compound 1.0 µM): 66%
residual activity (MINK1 (human); compound 10.0 µM): 52%
residual activity (FGFR1 (human); compound 1.0 µM): 97%
residual activity (FGFR1 (human); compound 10.0 µM): 72%
residual activity (MAPK1 (human); compound 1.0 µM): 101%
residual activity (MAPK1 (human); compound 10.0 µM): 76%
residual activity (CHEK2 (human); compound 1.0 µM): 60%
residual activity (CHEK2 (human); compound 10.0 µM): 34%
residual activity (CSNK2A1 (human); compound 1.0 µM): 91%
residual activity (CSNK2A1 (human); compound 10.0 µM): 93%
residual activity (MYLK (human); compound 1.0 µM): 70%
residual activity (MYLK (human); compound 10.0 µM): 25%
residual activity (MARK4 (human); compound 1.0 µM): 115%
residual activity (MARK4 (human); compound 10.0 µM): 102%
residual activity (PRKAA1 or PRKAA2 (rat); compound 1.0 µM): 85%
residual activity (PRKAA1 or PRKAA2 (rat); compound 10.0 µM): 50%
residual activity (PRKACA (human); compound 1.0 µM): 83%
residual activity (PRKACA (human); compound 10.0 µM): 95%
residual activity ([1]; compound 1.0 µM): 78%
residual activity ([1]; compound 10.0 µM): 65%
residual activity (IKBKB (human); compound 1.0 µM): 6%
residual activity (IKBKB (human); compound 10.0 µM): 4%
residual activity (MAPKAPK3 (human); compound 1.0 µM): 87%
residual activity (MAPKAPK3 (human); compound 10.0 µM): 85%
residual activity (INSRR (human); compound 1.0 µM): 117%
residual activity (INSRR (human); compound 10.0 µM): 61%
